Results published in ChEMBL document CHEMBL5126588, “Discovery of non-substrate, environmentally sensitive turn-on fluorescent probes for imaging HDAC8 in tumor cells and tissue slices” (Bioorg Med Chem, 2022).
Activity calls are given as the source filed them. The rule behind the calls is not given here.

Legend:
MDA-MB-231 [1] = assay: Antiproliferative activity against human MDA-MB-231 cells by MTT assay; type: functional, cell-based
SH-SY5Y [2] = assay: Antiproliferative activity against human SH-SY5Y cells by MTT assay; type: functional, cell-based
Histone deacetylase 8 = molecular target: T1, Histone deacetylase 8 (Homo sapiens, UniProt Q9BY41); assay: Binding affinity to HDAC8 (unknown origin) by biolayer interferometry assay
T1 sequence (Q9BY41 whole entry): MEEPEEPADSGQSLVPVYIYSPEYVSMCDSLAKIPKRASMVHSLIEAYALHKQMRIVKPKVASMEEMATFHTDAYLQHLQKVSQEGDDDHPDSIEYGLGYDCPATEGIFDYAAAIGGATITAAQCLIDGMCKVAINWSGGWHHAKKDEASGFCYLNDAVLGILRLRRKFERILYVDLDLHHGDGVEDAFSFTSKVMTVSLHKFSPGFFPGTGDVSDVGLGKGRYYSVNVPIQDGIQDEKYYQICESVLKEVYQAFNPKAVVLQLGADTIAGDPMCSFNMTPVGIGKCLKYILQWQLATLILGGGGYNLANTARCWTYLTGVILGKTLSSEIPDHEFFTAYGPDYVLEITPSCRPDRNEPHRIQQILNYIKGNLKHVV

Histone deacetylase 1 = Histone deacetylase 1 (Homo sapiens, UniProt Q13547); assay: Binding affinity to HDAC1 (unknown origin) by biolayer interferometry assay
Sequence of Histone deacetylase 1 (Q13547 whole entry): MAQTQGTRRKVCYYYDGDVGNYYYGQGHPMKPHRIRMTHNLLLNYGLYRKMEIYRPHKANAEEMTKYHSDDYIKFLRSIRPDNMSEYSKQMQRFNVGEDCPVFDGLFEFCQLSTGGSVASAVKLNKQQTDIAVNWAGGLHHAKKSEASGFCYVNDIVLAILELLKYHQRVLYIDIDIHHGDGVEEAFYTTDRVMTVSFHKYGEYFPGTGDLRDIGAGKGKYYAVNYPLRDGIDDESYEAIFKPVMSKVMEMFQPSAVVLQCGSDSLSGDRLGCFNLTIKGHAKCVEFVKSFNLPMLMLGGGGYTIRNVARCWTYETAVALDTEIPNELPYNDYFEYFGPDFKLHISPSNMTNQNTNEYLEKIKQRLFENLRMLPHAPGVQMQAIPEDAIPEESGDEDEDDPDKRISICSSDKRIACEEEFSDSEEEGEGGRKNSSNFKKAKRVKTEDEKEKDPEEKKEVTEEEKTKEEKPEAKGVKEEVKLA

[3] = molecular target: T2, Protein deacetylase HDAC6 (Homo sapiens, UniProt Q9UBN7); assay: Binding affinity to HDAC6 (unknown origin) by biolayer interferometry assay
T2 sequence (Q9UBN7 whole entry): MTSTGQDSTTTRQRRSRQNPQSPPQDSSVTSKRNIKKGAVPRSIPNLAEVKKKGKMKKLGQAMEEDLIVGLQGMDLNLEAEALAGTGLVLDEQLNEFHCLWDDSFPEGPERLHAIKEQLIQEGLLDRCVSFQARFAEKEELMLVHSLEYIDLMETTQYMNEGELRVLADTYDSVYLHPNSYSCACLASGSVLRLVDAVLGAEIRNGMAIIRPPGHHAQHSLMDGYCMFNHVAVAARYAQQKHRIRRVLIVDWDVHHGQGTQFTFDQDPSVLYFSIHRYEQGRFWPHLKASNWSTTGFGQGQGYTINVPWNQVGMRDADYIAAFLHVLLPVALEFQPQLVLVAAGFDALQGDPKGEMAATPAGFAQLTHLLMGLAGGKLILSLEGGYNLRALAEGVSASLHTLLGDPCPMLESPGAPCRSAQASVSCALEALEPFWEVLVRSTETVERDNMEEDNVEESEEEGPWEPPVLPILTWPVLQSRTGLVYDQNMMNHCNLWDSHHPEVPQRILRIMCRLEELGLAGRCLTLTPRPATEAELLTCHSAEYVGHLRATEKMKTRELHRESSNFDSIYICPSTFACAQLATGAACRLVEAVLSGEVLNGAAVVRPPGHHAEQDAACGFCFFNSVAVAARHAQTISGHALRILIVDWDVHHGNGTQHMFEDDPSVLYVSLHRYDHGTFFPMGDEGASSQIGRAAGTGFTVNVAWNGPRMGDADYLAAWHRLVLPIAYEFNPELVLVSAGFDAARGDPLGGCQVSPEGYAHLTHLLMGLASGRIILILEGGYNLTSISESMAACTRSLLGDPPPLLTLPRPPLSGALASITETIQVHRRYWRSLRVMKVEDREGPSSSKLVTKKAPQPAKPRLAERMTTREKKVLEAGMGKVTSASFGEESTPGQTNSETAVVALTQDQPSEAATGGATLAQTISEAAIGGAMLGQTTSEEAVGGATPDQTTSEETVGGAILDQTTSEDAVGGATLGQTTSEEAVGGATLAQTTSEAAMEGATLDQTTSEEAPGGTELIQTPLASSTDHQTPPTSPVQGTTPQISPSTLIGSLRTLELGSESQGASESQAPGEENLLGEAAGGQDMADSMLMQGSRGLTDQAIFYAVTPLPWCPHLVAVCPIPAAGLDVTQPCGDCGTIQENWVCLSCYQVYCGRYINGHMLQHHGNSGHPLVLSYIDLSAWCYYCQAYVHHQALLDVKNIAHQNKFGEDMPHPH

MDA-MB-231 [4] = assay: Antiproliferative activity against human MDA-MB-231 cells within 20 uM by MTT assay; type: toxicity, cell-based; conditions: mda-mb-231, 20 µM
SH-SY5Y [5] = assay: Antiproliferative activity against human SH-SY5Y cells within 20 uM by MTT assay; type: toxicity, cell-based
[6] = molecular target: T3, Histone deacetylase 8 (Homo sapiens) (UniProt Q9BY41); assay: Binding affinity to HDAC8 in human SH-SY5Y cells assessed as increase in fluorescence intensity at 10 uM after 30 mins by confocal fluorescence microscopic analysis; type: cell-based
T3 sequence (whole entry): T1 sequence (Q9BY41 whole entry)

[7] = molecular target: T3, Histone deacetylase 8 (Homo sapiens); assay: Binding affinity to HDAC8 in human SH-SY5Y cells assessed as increase in fluorescence intensity at 5 to 10 uM incubated for 30 mins by flow cytometry analysis; type: cell-based; conditions: dose 5-10 µM
[8] = molecular target: T3, Histone deacetylase 8 (Homo sapiens); assay: Binding affinity to HDAC8 in human SH-SY5Y cells xenografted with BALB/c mouse assessed as increase in fluorescence intensity in tumor tissue at 20 uM after 30 mins by fluorescence imaging analysis

Row | IC50 (MDA-MB-231 [1]) | IC50 (SH-SY5Y [2]) | Kd (Histone deacetylase 8) | Kd (Histone deacetylase 1) | Kd [3] | Activity [6] | Activity [7] | Activity [8] | Structure (SMILES) | Activity (MDA-MB-231 [4]) | Activity (SH-SY5Y [5])
1 | 16.1 µM | 2.38 µM | – | – | – | – | – | – | COc1ccc(Cn2ccc3ccc(C(=O)NO)cc32)cc1 | – | –
2 | 16.1 µM | 9.93 µM | 5.37 µM | 16.2 µM | 29.4 µM | – | – | – | COc1ccc(Cn2ccc3ccc(C(=O)NO)cc32)cc1C(=O)NCCNc1ccc(S(=O)(=O)N(C)C)c2nonc12 | – | –
3 | 18 µM | 8.56 µM | 3.57 µM | 20.6 µM | 20.1 µM | – | – | – | COc1ccc(Cn2ccc3ccc(C(=O)NO)cc32)cc1C(=O)NCCCNc1ccc(S(=O)(=O)N(C)C)c2nonc12 | – | –
4 | 33 µM | 8.48 µM | 8.89 µM | 79.4 µM | 137 µM | Active | Active | Active | COc1ccc(Cn2ccc3ccc(C(=O)NO)cc32)cc1C(=O)NCCCCNc1ccc(S(=O)(=O)N(C)C)c2nonc12 | Non-Toxic | Non-Toxic
